Among the data in the NIST ThermoML archive (doi:10.1021/je700297c) are activity coefficient values, retold here.

A short description of this series: activity coefficient (dimensionless); of the first substance listed, at infinite dilution; xn = mol fraction of the nth substance listed. The note with it: Liquid, Chromatography, x1 = 0.

± gives the expanded uncertainty stated by the source.

In the case of `C1CCCCC1` [cyclohexane] + C[n+]1ccn(CCCC#N)c1.N#CN=C=[N-], the activity coefficient (303 K) was found to be 81.7 ± 5.6 and the activity coefficient (323 K) turned out to be 58.9 ± 4.

With `CCCCCCCC` [octane] + CCCCCCCCCCCCCCCCCC(=O)[O-].CCCCn1cc[n+](C)c1, the activity coefficient is 2.1 ± 0.2 (323 K) and 1.6 ± 0.1 (333 K).

Turning to `CCO` [ethanol] + C[n+]1ccn(CCCC#N)c1.O=S(=O)([N-]S(=O)(=O)C(F)(F)F)C(F)(F)F, the activity coefficient was determined as 1.7 ± 0.1 (303 K) and 1.4 ± 0.1 (323 K).

As to `CO` [methanol] + CCCC[n+]1ccn(C)c1.O=S(=O)([N-]S(=O)(=O)C(F)(F)F)C(F)(F)F, for the setting “323 K”, the activity coefficient was determined as 0.8 ± 0.1.

As for `C=CCCCCCC` [oct-1-ene] + CCCCCCCCCCCCCCCC(=O)[O-].CCCCn1cc[n+](C)c1, for the setting “333 K”, the activity coefficient stood at 1.4 ± 0.1.

On to `Cc1ccccc1` [toluene] + C[n+]1ccn(CCCC#N)c1.O=S(=O)([N-]S(=O)(=O)C(F)(F)F)C(F)(F)F, for which the activity coefficient is 3.3 ± 0.2 (303 K) and 3.1 ± 0.2 (323 K).

Turning to `c1ccccc1` [benzene] + CCCCCCCCCCCCCCCC(=O)[O-].CCCCn1cc[n+](C)c1, the activity coefficient (333 K) was found to be 0.7 ± 0.1.

On to `CC1CCCCC1` [methylcyclohexane] + CCCCCCCCCCCCCCCCCC(=O)[O-].CCCCn1cc[n+](C)c1, for which the activity coefficient (323 K) stood at 1.3 ± 0.1 and the activity coefficient (333 K) stood at 1.3 ± 0.1.

Consider `c1ccsc1` [thiophene] + CCCCCCCC[n+]1ccn(C)c1.F[B-](F)(F)F, for which the activity coefficient runs as follows: (298 K) 0.9 ± 0.1; (323 K) 0.8 ± 0.1.

Take `CCOC(C)=O` [ethyl acetate] + C[n+]1ccn(CCCC#N)c1.N#CN=C=[N-]: the activity coefficient was 2.8 ± 0.2 (303 K) and 2.7 ± 0.2 (323 K).

For `Cc1ccccc1` [toluene] + CCCCCCCCCCCCCCCCCC(=O)[O-].CCCCn1cc[n+](C)c1, the activity coefficient runs as follows: (323 K) 0.8 ± 0.1; (333 K) 0.8 ± 0.1.

On to `CCO` [ethanol] + CCCCCCCCCCCCCCCCCC(=O)[O-].CCCCn1cc[n+](C)c1, for which the activity coefficient is, setting by setting: (323 K) 0.5 ± 0.1; (333 K) 0.4 ± 0.1.

With `Cc1ccccc1` [toluene] + CCCC[n+]1ccn(C)c1.O=S(=O)([N-]S(=O)(=O)C(F)(F)F)C(F)(F)F, the activity coefficient (323 K) was determined as 1.2 ± 0.1.

As to `c1ccccc1` [benzene] + CCCCCCCCCCCCCCCCCC(=O)[O-].CCCCn1cc[n+](C)c1, the activity coefficient (323 K) stood at 0.7 ± 0.1 and the activity coefficient (333 K) was 0.7 ± 0.1.

Consider `C=CCCCCCC` [oct-1-ene] + CCCCn1cc[n+](C)c1.F[B-](F)(F)F, for which the activity coefficient stood at 59.1 ± 4 (298 K) and 48.3 ± 3.3 (323 K).

On to `C=CCCCC` [hex-1-ene] + CCCCCCCCCCCCCCCC(=O)[O-].CCCCn1cc[n+](C)c1, for which, under “333 K”, the activity coefficient was found to be 1.1 ± 0.1.

On to `C1CCOC1` [tetrahydrofuran] + CCCC[n+]1ccn(C)c1.O=S(=O)([N-]S(=O)(=O)C(F)(F)F)C(F)(F)F, for which, under “323 K”, the activity coefficient came out at 0.4 ± 0.1.

As for `CCCCCCCC` [octane] + CCCCn1cc[n+](C)c1.F[B-](F)(F)F, the activity coefficient is 117 ± 8 (298 K) and 95.5 ± 6.5 (323 K).

Take `C=CCCCCCC` [oct-1-ene] + C[n+]1ccn(CCCC#N)c1.O=S(=O)([N-]S(=O)(=O)C(F)(F)F)C(F)(F)F: the activity coefficient came out at 119 ± 8.1 (303 K) and 106 ± 7.2 (323 K).

As for `CCCCCC` [hexane] + C[n+]1ccn(CCCC#N)c1.N#CN=C=[N-], the activity coefficient (303 K) amounted to 213 ± 15 and the activity coefficient (323 K) is 145 ± 9.9.

In the case of `CCCCCCC` [heptane] + C[n+]1ccn(CCCC#N)c1.N#CN=C=[N-], the activity coefficient was 231 ± 16 (303 K) and 197 ± 14 (323 K).

As to `CO` [methanol] + C[n+]1ccn(CCCC#N)c1.N#CN=C=[N-], the activity coefficient stood at 0.3 ± 0.1 (303 K) and 0.3 ± 0.1 (323 K).

In the case of `CO` [methanol] + CCCCCCCCCCCCCCCCCC(=O)[O-].CCCCn1cc[n+](C)c1, the activity coefficient turned out to be 0.3 ± 0.1 (323 K) and 0.3 ± 0.1 (333 K).
